# Experimental data taken from the supplement of paper PMC10307832.
# Columns and labels:
# Test in all cases: relative viability (nuclei count vs DMSO), 5 days (fraction); higher = more cells survive
# [1] = tested on: A-427
# Method in brief: (§1)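 For relative viability, nuclei counts in treated wells were divided by those in vehicle wells. Lung cancer cell lines had been pin-tool dosed in 1536-well plates the day after seeding and cultured for 5 days, then fixed and stained in one step (final 0.05% Triton X-100, 1% formaldehyde, 1 ug/ml Hoechst) and imaged at 4×. Doses were one drug alone or a fixed anchor-drug dose plus five library-drug doses (not always all listed) in √10 steps, and values are duplicate-plate medians.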
# [2] = tested on: EMC-BAC-2
# Method in brief: as §1
# [3] = tested on: HARA
# Method in brief: as §1
# [4] = tested on: HOP-62
# Method in brief: as §1
# [5] = tested on: LK-2
# Method in brief: as §1
# [6] = tested on: LXF-289
# Method in brief: as §1
# [7] = tested on: NCI-H1792
# Method in brief: as §1
# [8] = tested on: NCI-H1944
# Method in brief: as §1
# [9] = tested on: NCI-H1993
# Method in brief: as §1
# [10] = tested on: NCI-H2009
# Method in brief: as §1
# [11] = tested on: NCI-H2170
# Method in brief: as §1
# [12] = tested on: NCI-H2228
# Method in brief: as §1
# [13] = tested on: NCI-H3122
# Method in brief: as §1
# [14] = tested on: NCI-H322M
# Method in brief: as §1
# [15] = tested on: NCI-H522
# Method in brief: as §1
# [16] = tested on: NCI-H596
# Method in brief: as §1
# [17] = tested on: PC-3 [JPC-3]
# Method in brief: as §1
# [18] = tested on: SK-MES-1
# Method in brief: as §1
# [19] = tested on: SW 1573
# Method in brief: as §1
# [20] = tested on: SW 900
# Method in brief: as §1
smiles,measurement,setting,value
Nc1ccn([C@@H]2O[C@H](CO)[C@@H](O)[C@@H]2O)c(=O)n1 [Cytarabine] + Nc1nc2[nH]cc(CCc3ccc(C(=O)N[C@@H](CCC(=O)O)C(=O)O)cc3)c2c(=O)[nH]1 [Pemetrexed] (partner 0.2 µM),relative viability,[1]; first compound 0.005 µM,0.745
same,relative viability,[1]; first compound 0.01581 µM,0.509
same,relative viability,[1]; first compound 0.05 µM,0.332
same,relative viability,[1]; first compound 0.1581 µM,0.27
same,relative viability,[1]; first compound 0.5 µM,0.253
same,relative viability,[2]; first compound 0.005 µM,0.476
same,relative viability,[2]; first compound 0.01581 µM,0.446
same,relative viability,[2]; first compound 0.05 µM,0.31
same,relative viability,[2]; first compound 0.1581 µM,0.244
same,relative viability,[2]; first compound 0.5 µM,0.247
same,relative viability,[3]; first compound 0.005 µM,0.243
same,relative viability,[3]; first compound 0.01581 µM,0.221
same,relative viability,[3]; first compound 0.05 µM,0.217
same,relative viability,[3]; first compound 0.1581 µM,0.171
same,relative viability,[3]; first compound 0.5 µM,0.153
same,relative viability,[4]; first compound 0.005 µM,0.388
same,relative viability,[4]; first compound 0.01581 µM,0.411
same,relative viability,[4]; first compound 0.05 µM,0.309
same,relative viability,[4]; first compound 0.1581 µM,0.113
same,relative viability,[4]; first compound 0.5 µM,0.072
same,relative viability,[5]; first compound 0.005 µM,0.34
same,relative viability,[5]; first compound 0.01581 µM,0.233
same,relative viability,[5]; first compound 0.05 µM,0.11
same,relative viability,[5]; first compound 0.1581 µM,0.091
same,relative viability,[5]; first compound 0.5 µM,0.0936
same,relative viability,[6]; first compound 0.005 µM,0.729
same,relative viability,[6]; first compound 0.01581 µM,0.864
same,relative viability,[6]; first compound 0.05 µM,0.808
same,relative viability,[6]; first compound 0.1581 µM,0.36
same,relative viability,[6]; first compound 0.5 µM,0.268
same,relative viability,[7]; first compound 0.01581 µM,0.672
same,relative viability,[7]; first compound 0.05 µM,0.751
same,relative viability,[7]; first compound 0.1581 µM,0.182
same,relative viability,[7]; first compound 0.5 µM,0.115
same,relative viability,[8]; first compound 0.005 µM,0.505
same,relative viability,[8]; first compound 0.01581 µM,0.312
same,relative viability,[8]; first compound 0.05 µM,0.241
same,relative viability,[8]; first compound 0.1581 µM,0.14
same,relative viability,[8]; first compound 0.5 µM,0.116
same,relative viability,[9]; first compound 0.005 µM,0.682
same,relative viability,[9]; first compound 0.01581 µM,0.548
same,relative viability,[9]; first compound 0.05 µM,0.299
same,relative viability,[9]; first compound 0.1581 µM,0.448
same,relative viability,[9]; first compound 0.5 µM,0.471
same,relative viability,[10]; first compound 0.005 µM,0.971
same,relative viability,[10]; first compound 0.01581 µM,0.99
same,relative viability,[10]; first compound 0.05 µM,0.996
same,relative viability,[10]; first compound 0.1581 µM,0.827
same,relative viability,[10]; first compound 0.5 µM,0.258
same,relative viability,[11]; first compound 0.005 µM,0.331
same,relative viability,[11]; first compound 0.01581 µM,0.291
same,relative viability,[11]; first compound 0.05 µM,0.333
same,relative viability,[11]; first compound 0.1581 µM,0.205
same,relative viability,[11]; first compound 0.5 µM,0.183
same,relative viability,[12]; first compound 0.005 µM,0.32
same,relative viability,[12]; first compound 0.01581 µM,0.275
same,relative viability,[12]; first compound 0.05 µM,0.134
same,relative viability,[12]; first compound 0.1581 µM,0.0993
same,relative viability,[12]; first compound 0.5 µM,0.133
same,relative viability,[13]; first compound 0.005 µM,0.207
same,relative viability,[13]; first compound 0.01581 µM,0.196
same,relative viability,[13]; first compound 0.05 µM,0.227
same,relative viability,[13]; first compound 0.1581 µM,0.381
same,relative viability,[13]; first compound 0.5 µM,0.156
same,relative viability,[14]; first compound 0.005 µM,0.609
same,relative viability,[14]; first compound 0.01581 µM,0.628
same,relative viability,[14]; first compound 0.05 µM,0.572
same,relative viability,[14]; first compound 0.1581 µM,0.408
same,relative viability,[14]; first compound 0.5 µM,0.384
same,relative viability,[15]; first compound 0.005 µM,0.942
same,relative viability,[15]; first compound 0.01581 µM,0.846
same,relative viability,[15]; first compound 0.05 µM,0.631
same,relative viability,[15]; first compound 0.1581 µM,0.578
same,relative viability,[15]; first compound 0.5 µM,0.455
same,relative viability,[16]; first compound 0.005 µM,0.41
same,relative viability,[16]; first compound 0.01581 µM,0.485
same,relative viability,[16]; first compound 0.05 µM,0.472
same,relative viability,[16]; first compound 0.1581 µM,0.379
same,relative viability,[16]; first compound 0.5 µM,0.349
same,relative viability,[17]; first compound 0.005 µM,1
same,relative viability,[17]; first compound 0.01581 µM,0.914
same,relative viability,[17]; first compound 0.05 µM,0.616
same,relative viability,[17]; first compound 0.1581 µM,0.557
same,relative viability,[17]; first compound 0.5 µM,0.716
same,relative viability,[18]; first compound 0.005 µM,0.684
same,relative viability,[18]; first compound 0.01581 µM,0.595
same,relative viability,[18]; first compound 0.05 µM,0.336
same,relative viability,[18]; first compound 0.1581 µM,0.233
same,relative viability,[18]; first compound 0.5 µM,0.207
same,relative viability,[19]; first compound 0.005 µM,0.675
same,relative viability,[19]; first compound 0.01581 µM,0.576
same,relative viability,[19]; first compound 0.05 µM,0.386
same,relative viability,[19]; first compound 0.1581 µM,0.107
same,relative viability,[19]; first compound 0.5 µM,0.0809
same,relative viability,[20]; first compound 0.005 µM,0.432
same,relative viability,[20]; first compound 0.01581 µM,0.499
same,relative viability,[20]; first compound 0.05 µM,0.441
same,relative viability,[20]; first compound 0.1581 µM,0.179
same,relative viability,[20]; first compound 0.5 µM,0.143
